Here are results for 20 compounds from ChEMBL document CHEMBL3044695, “Synthesis and insect antifeedant activity of C-2 and C-5 substituted perhydrofurofurans and 3a-hydroxy-perhydrofurofurans (Part I)” (Tetrahedron, 1999).

Data set [1] has as its system Pieris brassicae. Description: Antifeedant activity against fifth-instar larvae of Pieris brassicae on cabbage leaf discs at 5 mM measured upto 3 hr time period by two-choice bioassay. The format is functional.
Data set [2] relates to Pieris brassicae. The data set is described as follows: Antifeedant activity against fifth-instar larvae of Pieris brassicae on cabbage leaf discs at 5 mM measured 0 to 1.5 hr time period by no-choice bioassay. The format is functional.
Data set [3] concerns Pieris brassicae. The data set is described as follows: Post-ingestive toxicity in Pieris brassicae on cabbage leaf discs at 5 mM. The settings on record: in vivo, po, 5000 µM. The format is organism-based.
In data set [4] the test system is Pieris brassicae. The data set is described as follows: Antifeedant activity against fifth-instar larvae of Pieris brassicae on cabbage leaf discs at 5 mM measured 1.5 to 3 hr time period by no-choice bioassay. The format is functional.

As for `O[C@]12CCO[C@H]1O[C@H](C1CCCCC1)C2`, the AFI with Pieris brassicae [1] amounted to 24%.

As to `O=C1C[C@]2(O)C[C@@H](C3CCCCC3)O[C@@H]2O1`, the AFI in the data set with Pieris brassicae [1] stood at 9%.

As for `CC(=O)OC1C[C@]2(O)C[C@@H](C3CCCCC3)O[C@@H]2O1` (some centres undefined), the AFI in the data set on Pieris brassicae [1] is reported as 9%.

`OC1C[C@]2(O)C[C@@H](C3CCCCC3)O[C@@H]2O1` (some centres undefined): the AFI with Pieris brassicae [1] was 16%.

In the case of `COC1C[C@]2(O)C[C@@H](C3CCCCC3)O[C@@H]2O1` (some centres undefined), in the data set on Pieris brassicae [1], the AFI stood at 18%.

As for `O[C@]12C=CO[C@H]1O[C@H](C1CCCCC1)C2`, the AFI with Pieris brassicae [1] is recorded as 54%.

With `CCCCCCCCCCC1C[C@H]2CC(=O)O[C@H]2O1` (some centres undefined), in the data set on Pieris brassicae [1], the AFI is 41%.

Take `C1=C[C@@H]2CC(c3ccccc3)O[C@@H]2O1` (some centres undefined): the figures for the AFI in the data set on Pieris brassicae [2], with Pieris brassicae [1] and with Pieris brassicae [4] were -1.7%, 11% and -2.6%, respectively. In addition, the Activity result in the data set with Pieris brassicae [3] was “Non-toxic”.

Consider `CCCCCCC1C[C@H]2CC(=O)O[C@H]2O1` (some centres undefined), for which, in the data set on Pieris brassicae [1], the AFI is recorded as -11%.

With `CCCCCCC1C[C@H]2C=CO[C@H]2O1` (some centres undefined), the figures for the AFI with Pieris brassicae [2], with Pieris brassicae [1] and with Pieris brassicae [4] were 20.3%, 11% and 10.6%, respectively. Also, the Activity entry in the data set with Pieris brassicae [3] is listed as “Non-toxic”.

Regarding `O=C1C[C@H]2CC(C3CCCCC3)O[C@H]2O1` (some centres undefined), the AFI in the data set with Pieris brassicae [2] amounted to 22.4%; with Pieris brassicae [1] it was 10%; in the data set with Pieris brassicae [4], 13.9%. The Activity entry in the data set on Pieris brassicae [3] is “Non-toxic”.

Consider `CC(=O)OC1C[C@H]2CC(C3CCCCC3)O[C@H]2O1` (some centres undefined), for which the AFI in the data set on Pieris brassicae [2] stood at 16.7%; in the data set on Pieris brassicae [1], 16%; in the data set on Pieris brassicae [4], 3%. For the same compound, the Activity result with Pieris brassicae [3] was “Non-toxic”.

On to `CCOC1C[C@H]2CC(C3CCCCC3)O[C@H]2O1` (some centres undefined), for which the AFI with Pieris brassicae [2] was determined as 18.3%; in the data set on Pieris brassicae [1] it was 20%; in the data set with Pieris brassicae [4] it was 9.5%. For the same compound, the Activity entry in the data set with Pieris brassicae [3] is given as “Non-toxic”.

Consider `C1CCC(C2C[C@@H]3CCO[C@@H]3O2)CC1` (some centres undefined), for which the AFI in the data set with Pieris brassicae [2] is given as 6.7%; with Pieris brassicae [1], 26%; in the data set on Pieris brassicae [4], 5.4%. For the same compound, the Activity entry with Pieris brassicae [3] is listed as “Non-toxic”.

In the case of `OC1C[C@H]2CC(C3CCCCC3)O[C@H]2O1` (some centres undefined), the AFI in the data set on Pieris brassicae [2] is reported as 18.6%; in the data set with Pieris brassicae [1], 10%; in the data set with Pieris brassicae [4], 15.9%. Further, the Activity result in the data set on Pieris brassicae [3] is “Non-toxic”.

`C1=C[C@@H]2CC(C3CCCCC3)O[C@@H]2O1` (some centres undefined): the AFI in the data set with Pieris brassicae [2] is given as -9.3%; in the data set on Pieris brassicae [1], -2.5%; with Pieris brassicae [4], -12.3%. In addition, the Activity result in the data set on Pieris brassicae [3] is reported as “Non-toxic”.

For the compound `CCCCCCCCCC[C@@H]1C[C@H]2CC(=O)O[C@H]2O1` (racemic), in the data set on Pieris brassicae [1], the AFI came out at 10%.

`O=C1C[C@@H]2C[C@@H](c3ccccc3)O[C@@H]2O1` (racemic): in the data set on Pieris brassicae [1], the AFI is given as 18%.

Turning to `O=C1C[C@@H]2C[C@H](C3CCCCC3)O[C@@H]2O1` (relative stereo), in the data set on Pieris brassicae [1], the AFI is 24%.

Turning to `O=C1C[C@H]2C[C@@H](C3CCCCC3)O[C@@H]2O1` (relative stereo), the AFI in the data set with Pieris brassicae [1] is recorded as 9%.
